Assays:
Format in all cases: in vivo
[1] = tested on: Alopecurus myosuroides (ALOMY); test: Pre-emergence biological efficacy (percentage damage); conditions: Alopecurus myosuroides, 312 h, dose 1,000 g/ha, evaluated after 13 days, 100=total damage, 0=no damage
Outline: (§1)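 Visual injury on a 0–100 scale was recorded 13 days after a spray giving 250 or 1000 g/ha of compound, applied one day post-sowing.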

[2] = tested on: Amaranthus retoflexus (AMARE); test: as above; conditions: Amaranthus retroflexus, 312 h, dose 1,000 g/ha, evaluated after 13 days, 100=total damage, 0=no damage
Outline: as §1

[3] = tested on: Echinochloa crus-galli (ECHCG); test: as above; conditions: Echinochloa crus-galli, 312 h, dose 1,000 g/ha, evaluated after 13 days, 100=total damage, 0=no damage
Outline: as §1

[4] = tested on: Ipomea hederaceae (IPOHE); test: as above; conditions: Ipomoea hederacea, 312 h, dose 1,000 g/ha, evaluated after 13 days, 100=total damage, 0=no damage
Outline: as §1

Setaria faberi (SETFA) [5] = test: as above; conditions: Setaria faberi, 312 h, dose 1,000 g/ha, evaluated after 13 days, 100=total damage, 0=no damage
Outline: as §1

Solanum nigrum (SOLNI) [6] = test: as above; conditions: Solanum nigrum, 312 h, dose 1,000 g/ha, evaluated after 13 days, 100=total damage, 0=no damage
Outline: as §1

[7] = tested on: Alopecurus myosuroides (ALOMY); test: Post-emergence biological efficacy (percentage damage); conditions: Alopecurus myosuroides, 312 h, dose 1,000 g/ha, evaluated after 13 days, 100=total damage, 0=no damage
Outline: (§2)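 Post-emergence glasshouse test: plants sprayed 8 days after sowing (24/16 °C day/night, 14 h light, 65% humidity) at 250 or 1000 g/ha, formulated in acetone/water 50:50 with 0.5% Tween 20. Damage scored visually 13 days after treatment on a 0–100 scale (100 = total damage).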

[8] = tested on: Amaranthus retoflexus (AMARE); test: as above; conditions: Amaranthus retroflexus, 312 h, dose 1,000 g/ha, evaluated after 13 days, 100=total damage, 0=no damage
Outline: as §2

[9] = tested on: Echinochloa crus-galli (ECHCG); test: as above; conditions: Echinochloa crus-galli, 312 h, dose 1,000 g/ha, evaluated after 13 days, 100=total damage, 0=no damage
Outline: as §2

[10] = tested on: Ipomea hederaceae (IPOHE); test: as above; conditions: Ipomoea hederacea, 312 h, dose 1,000 g/ha, evaluated after 13 days, 100=total damage, 0=no damage
Outline: as §2

Setaria faberi (SETFA) [11] = test: as above; conditions: Setaria faberi, 312 h, dose 1,000 g/ha, evaluated after 13 days, 100=total damage, 0=no damage
Outline: as §2

Solanum nigrum (SOLNI) [12] = test: as above; conditions: Solanum nigrum, 312 h, dose 1,000 g/ha, evaluated after 13 days, 100=total damage, 0=no damage
Outline: as §2

Row | Structure (SMILES) | pest or weed control at 1000 g/ha [1] | pest or weed control at 1000 g/ha [2] | pest or weed control at 1000 g/ha [3] | pest or weed control at 1000 g/ha [4] | pest or weed control at 1000 g/ha (Setaria faberi (SETFA) [5]) | pest or weed control at 1000 g/ha (Solanum nigrum (SOLNI) [6]) | pest or weed control at 1000 g/ha [7] | pest or weed control at 1000 g/ha [8] | pest or weed control at 1000 g/ha [9] | pest or weed control at 1000 g/ha [10] | pest or weed control at 1000 g/ha (Setaria faberi (SETFA) [11]) | pest or weed control at 1000 g/ha (Solanum nigrum (SOLNI) [12])
1 | C=C(C)c1c(N)nc(-c2ccc(C(F)(F)F)cc2)nc1C(=O)OC [Compound 31-64, 4-Amino-6-methoxycarbonyl-5-(prop-1-en-2-yl)-2-(4-trifluoromethyl-phenyl)-pyrimidine] | 0% | 0% | 0% | 0% | 0% | 0% | 0% | 40% | 0% | 60% | 20% | 60%
2 | C=C(OCC)c1c(N)nc(-c2ccc(C(F)(F)F)cc2)nc1C(=O)OC [Compound 31-67, 4-amino-5-(1-ethoxyethenyl)-6-methoxycarbonyl-2-(4-trifluoromethylphenyl)-pyrimidine] | 0% | 0% | 0% | 0% | 0% | 0% | 0% | 50% | 0% | 80% | 0% | 80%
3 | CC(O)c1c(N)nc(-c2ccc(C(F)(F)F)cc2)nc1CO (stereo not drawn) [Compound 31-372, 4-amino-5-(1-hydroxyethyl)-6-hydroxymethyl-2-(4-trifluoromethylphenyl)-pyrimidine] | 0% | 0% | 0% | 0% | 0% | 0% | 10% | 20% | 10% | 30% | 30% | 30%
4 | C=Cc1c(N)nc(-c2ccc(Cl)c(N(C)C)c2F)nc1C(=O)O [Compound 33-21, 4-Amino-2-(4-chloro-3-dimethylamino-2-fluorophenyl)-5-ethenylpyrimidine-6-carboxylic acid] | 90% | 100% | 100% | 80% | 100% | 100% | 90% | 100% | 100% | 70% | 100% | 90%
5 | COC(=O)c1nc(-c2ccc(Cl)c(N(C)C)c2F)nc(N)c1C [Compound 33-41] | 10% | 20% | 10% | 0% | 30% | 30% | 30% | 100% | 50% | 10% | 70% | 70%
6 | COC(=O)c1nc(-c2ccc(Cl)c(N(C)C)c2F)nc(N)c1C(C)=O [Compound 33-53, 4-Amino-2-(4-chloro-3-dimethylamino-2-fluorophenyl)-6-methoxycarbonyl-5-methylcarbonyl-pyrimidine] | 0% | 0% | 0% | 0% | 0% | 0% | 10% | 100% | 20% | 40% | 20% | 50%
